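Protocol summary: plate cells (96-well), add compound at 5 concentrations, incubate 48 h, interpolate endpoints linearly. Abbreviation: GI50, concentration required for 50% inhibition of growth. TGI is the concentration that stops growth completely.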
Assays:
Experiment in all cases: DTP human tumour cell line panel, 48 h
MOLT-4 leukemia = tested on: MOLT-4 leukemia
DU-145 prostate = tested on: DU-145 prostate
HOP-92 NSCLC = tested on: HOP-92 NSCLC
EKVX NSCLC = tested on: EKVX NSCLC
NCI-H460 lung = tested on: NCI-H460 lung
786-0 renal = tested on: 786-0 renal
T-47D breast = tested on: T-47D breast
HCT-15 colon = tested on: HCT-15 colon
CAKI-1 renal = tested on: CAKI-1 renal
SF-539 CNS = tested on: SF-539 CNS
NCI/ADR-RES ovarian = tested on: NCI/ADR-RES ovarian
IGROV1 ovarian = tested on: IGROV1 ovarian
OVCAR-5 ovarian = tested on: OVCAR-5 ovarian
K-562 leukemia = tested on: K-562 leukemia
SF-295 CNS = tested on: SF-295 CNS
SK-MEL-2 melanoma = tested on: SK-MEL-2 melanoma
NCI-H226 lung = tested on: NCI-H226 lung
SK-OV-3 ovarian = tested on: SK-OV-3 ovarian
HCT-116 colon = tested on: HCT-116 colon
OVCAR-3 ovarian = tested on: OVCAR-3 ovarian
ACHN renal = tested on: ACHN renal
U251 CNS = tested on: U251 CNS
TK-10 renal = tested on: TK-10 renal
KM12 colon = tested on: KM12 colon
MDA-N = tested on: MDA-N
SN12C renal = tested on: SN12C renal
UO-31 renal = tested on: UO-31 renal
NCI-H23 lung = tested on: NCI-H23 lung
UACC-257 melanoma = tested on: UACC-257 melanoma
SNB-75 CNS = tested on: SNB-75 CNS
OVCAR-4 ovarian = tested on: OVCAR-4 ovarian
HCC-2998 colon = tested on: HCC-2998 colon
BT-549 breast = tested on: BT-549 breast
HOP-62 NSCLC = tested on: HOP-62 NSCLC
M14 melanoma = tested on: M14 melanoma
MDA-MB-231 breast = tested on: MDA-MB-231 breast
LOX IMVI melanoma = tested on: LOX IMVI melanoma
MCF7 breast = tested on: MCF7 breast
MALME-3M melanoma = tested on: MALME-3M melanoma
SR leukemia = tested on: SR leukemia
A549 NSCLC = tested on: A549 NSCLC
A498 renal = tested on: A498 renal
COLO 205 colon = tested on: COLO 205 colon
SW-620 colon = tested on: SW-620 colon
SNB-19 CNS = tested on: SNB-19 CNS
OVCAR-8 ovarian = tested on: OVCAR-8 ovarian
RPMI-8226 leukemia = tested on: RPMI-8226 leukemia
CCRF-CEM leukemia = tested on: CCRF-CEM leukemia
HL-60(TB) leukemia = tested on: HL-60(TB) leukemia
PC-3 prostate = tested on: PC-3 prostate
HT29 colon = tested on: HT29 colon
MDA-MB-435 = tested on: MDA-MB-435
SF-268 CNS = tested on: SF-268 CNS
NCI-H522 lung = tested on: NCI-H522 lung
UACC-62 melanoma = tested on: UACC-62 melanoma
SK-MEL-5 melanoma = tested on: SK-MEL-5 melanoma
HS 578T breast = tested on: HS 578T breast
SK-MEL-28 melanoma = tested on: SK-MEL-28 melanoma

Compound `CCCCCC[n+]1noc(N)c1-c1ccc(-c2c(N)on[n+]2CCCCCC)cc1` has a GI50 (MOLT-4 leukemia) of 2.36 µg/mL, a TGI (MOLT-4 leukemia) of 7.33 µg/mL and a GI50 (DU-145 prostate) of 9.82 µg/mL. For the same compound, the TGI (DU-145 prostate) was 24.4 µg/mL, the GI50 (HOP-92 NSCLC) was 1.09 µg/mL and the TGI (HOP-92 NSCLC) was 5.91 µg/mL. The GI50 (EKVX NSCLC) was 7.71 µg/mL, the TGI (EKVX NSCLC) was 23.2 µg/mL and the GI50 (NCI-H460 lung) was 2.03 µg/mL. The TGI (NCI-H460 lung) was 4.7 µg/mL, the GI50 (786-0 renal) was 1.61 µg/mL and the TGI (786-0 renal) was 3.32 µg/mL. The GI50 (T-47D breast) was 2.49 µg/mL, the TGI (T-47D breast) was 6.28 µg/mL and the GI50 (HCT-15 colon) was 2.59 µg/mL. It also gave a TGI (HCT-15 colon) of 8.72 µg/mL, a GI50 (CAKI-1 renal) of 2.18 µg/mL and a TGI (CAKI-1 renal) of 5.22 µg/mL. It also gave a GI50 (SF-539 CNS) of 1.77 µg/mL, a TGI (SF-539 CNS) of 3.42 µg/mL and a GI50 (NCI/ADR-RES ovarian) of 12.5 µg/mL. The TGI (NCI/ADR-RES ovarian) was 25.6 µg/mL, the GI50 (IGROV1 ovarian) was 6.74 µg/mL and the TGI (IGROV1 ovarian) was 20.4 µg/mL. For the same compound, the GI50 (OVCAR-5 ovarian) was 5.54 µg/mL, the TGI (OVCAR-5 ovarian) was 14.6 µg/mL and the GI50 (K-562 leukemia) was 1.79 µg/mL. For the same compound, the TGI (K-562 leukemia) was 3.8 µg/mL, the GI50 (SF-295 CNS) was 1.88 µg/mL and the TGI (SF-295 CNS) was 3.73 µg/mL. It also gave a GI50 (SK-MEL-2 melanoma) of 1.61 µg/mL, a TGI (SK-MEL-2 melanoma) of 3.1 µg/mL and a GI50 (NCI-H226 lung) of 14.2 µg/mL. It also gave a TGI (NCI-H226 lung) of 28.2 µg/mL, a GI50 (SK-OV-3 ovarian) of 3.37 µg/mL and a TGI (SK-OV-3 ovarian) of 11 µg/mL. For the same compound, the GI50 (HCT-116 colon) was 3.97 µg/mL, the TGI (HCT-116 colon) was 14.3 µg/mL and the GI50 (OVCAR-3 ovarian) was 12.7 µg/mL. For the same compound, the TGI (OVCAR-3 ovarian) was 26.1 µg/mL, the GI50 (ACHN renal) was 7.74 µg/mL and the TGI (ACHN renal) was 20.7 µg/mL. The GI50 (U251 CNS) was 1.71 µg/mL, the TGI (U251 CNS) was 3.47 µg/mL and the GI50 (TK-10 renal) was 2.81 µg/mL. For the same compound, the TGI (TK-10 renal) was 8.51 µg/mL, the GI50 (KM12 colon) was 3.97 µg/mL and the TGI (KM12 colon) was 14.6 µg/mL. For the same compound, the GI50 (MDA-N) was 1.78 µg/mL, the TGI (MDA-N) was 3.48 µg/mL and the GI50 (SN12C renal) was 6.2 µg/mL. It also gave a TGI (SN12C renal) of 17.3 µg/mL, a GI50 (UO-31 renal) of 1.89 µg/mL and a TGI (UO-31 renal) of 4.46 µg/mL. It also gave a GI50 (NCI-H23 lung) of 14.1 µg/mL, a TGI (NCI-H23 lung) of 27.9 µg/mL and a GI50 (UACC-257 melanoma) of 1.73 µg/mL. For the same compound, the TGI (UACC-257 melanoma) was 3.34 µg/mL, the GI50 (SNB-75 CNS) was 3.41 µg/mL and the TGI (SNB-75 CNS) was 11.3 µg/mL. It also gave a GI50 (OVCAR-4 ovarian) of 2.62 µg/mL, a TGI (OVCAR-4 ovarian) of 14.9 µg/mL and a GI50 (HCC-2998 colon) of 1.45 µg/mL. It also gave a TGI (HCC-2998 colon) of 2.79 µg/mL, a GI50 (BT-549 breast) of 3.83 µg/mL and a TGI (BT-549 breast) of 14 µg/mL. The GI50 (HOP-62 NSCLC) was 7.64 µg/mL, the TGI (HOP-62 NSCLC) was 20.6 µg/mL and the GI50 (M14 melanoma) was 1.9 µg/mL. The TGI (M14 melanoma) was 3.43 µg/mL, the GI50 (MDA-MB-231 breast) was 3.3 µg/mL and the TGI (MDA-MB-231 breast) was 9.87 µg/mL. It also gave a GI50 (LOX IMVI melanoma) of 1.95 µg/mL, a TGI (LOX IMVI melanoma) of 4.21 µg/mL and a GI50 (MCF7 breast) of 1.97 µg/mL. It also gave a TGI (MCF7 breast) of 4.1 µg/mL, a GI50 (MALME-3M melanoma) of 1.81 µg/mL and a TGI (MALME-3M melanoma) of 3.33 µg/mL. The GI50 (SR leukemia) was 1.89 µg/mL, the TGI (SR leukemia) was 4.87 µg/mL and the GI50 (A549 NSCLC) was 5.25 µg/mL. It also gave a TGI (A549 NSCLC) of 13.9 µg/mL, a GI50 (A498 renal) of 6.03 µg/mL and a TGI (A498 renal) of 16 µg/mL. For the same compound, the GI50 (COLO 205 colon) was 1.66 µg/mL, the TGI (COLO 205 colon) was 3.58 µg/mL and the GI50 (SW-620 colon) was 2.32 µg/mL. The TGI (SW-620 colon) was 6.14 µg/mL, the GI50 (SNB-19 CNS) was 9.62 µg/mL and the TGI (SNB-19 CNS) was 22.8 µg/mL. The GI50 (OVCAR-8 ovarian) was 2.6 µg/mL, the TGI (OVCAR-8 ovarian) was 9.53 µg/mL and the GI50 (RPMI-8226 leukemia) was 1.98 µg/mL. It also gave a TGI (RPMI-8226 leukemia) of 4.71 µg/mL, a GI50 (CCRF-CEM leukemia) of 5.09 µg/mL and a TGI (CCRF-CEM leukemia) of 10.1 µg/mL. For the same compound, the GI50 (HL-60(TB) leukemia) was 1.61 µg/mL, the TGI (HL-60(TB) leukemia) was 3.07 µg/mL and the GI50 (PC-3 prostate) was 3.46 µg/mL. For the same compound, the TGI (PC-3 prostate) was 16.8 µg/mL, the GI50 (HT29 colon) was 1.85 µg/mL and the TGI (HT29 colon) was 4.01 µg/mL. It also gave a GI50 (MDA-MB-435) of 1.76 µg/mL, a TGI (MDA-MB-435) of 3.23 µg/mL and a GI50 (SF-268 CNS) of 7.82 µg/mL. For the same compound, the TGI (SF-268 CNS) was 22.4 µg/mL, the GI50 (NCI-H522 lung) was 1.99 µg/mL and the TGI (NCI-H522 lung) was 3.69 µg/mL. The GI50 (UACC-62 melanoma) was 1.94 µg/mL, the TGI (UACC-62 melanoma) was 3.51 µg/mL and the GI50 (SK-MEL-5 melanoma) was 1.66 µg/mL. The TGI (SK-MEL-5 melanoma) was 3.04 µg/mL, the GI50 (HS 578T breast) was 2.13 µg/mL and the TGI (HS 578T breast) was 5.06 µg/mL. For the same compound, the GI50 (SK-MEL-28 melanoma) was 1.69 µg/mL and the TGI (SK-MEL-28 melanoma) was 3.13 µg/mL.

From PubChem BioAssay (NCI)
